Laboratory results: ChEMBL document CHEMBL5291721, “A preclinical secondary pharmacology resource illuminates target-adverse drug reaction associations of marketed drugs” (Nat Commun, 2023)

Experiments:
[1] = molecular target: Gamma-aminobutyric acid receptor subunit alpha-1/alpha-2/beta-2/gamma-2 (Homo sapiens, UniProt P14867+P18507+P47869+P47870); assay type: functional, cell-based
Mu-type opioid receptor = Mu-type opioid receptor (Homo sapiens, UniProt P35372); experiment: biochemical; assay type: functional
Mu-type opioid receptor, sequence (P35372 whole entry): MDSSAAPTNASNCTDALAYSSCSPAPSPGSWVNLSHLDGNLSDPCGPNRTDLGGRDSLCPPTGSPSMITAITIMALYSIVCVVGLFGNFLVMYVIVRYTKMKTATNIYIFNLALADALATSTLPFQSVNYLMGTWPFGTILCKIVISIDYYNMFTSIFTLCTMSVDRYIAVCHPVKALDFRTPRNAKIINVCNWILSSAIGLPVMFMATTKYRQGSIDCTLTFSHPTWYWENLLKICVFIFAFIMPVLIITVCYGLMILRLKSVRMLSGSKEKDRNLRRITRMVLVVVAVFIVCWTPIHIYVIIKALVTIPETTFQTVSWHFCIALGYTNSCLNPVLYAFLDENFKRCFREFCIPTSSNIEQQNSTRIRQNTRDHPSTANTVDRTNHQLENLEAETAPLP

Glucocorticoid receptor = molecular target: T1, Glucocorticoid receptor (Homo sapiens, UniProt P04150)
T1 sequence (P04150 whole entry): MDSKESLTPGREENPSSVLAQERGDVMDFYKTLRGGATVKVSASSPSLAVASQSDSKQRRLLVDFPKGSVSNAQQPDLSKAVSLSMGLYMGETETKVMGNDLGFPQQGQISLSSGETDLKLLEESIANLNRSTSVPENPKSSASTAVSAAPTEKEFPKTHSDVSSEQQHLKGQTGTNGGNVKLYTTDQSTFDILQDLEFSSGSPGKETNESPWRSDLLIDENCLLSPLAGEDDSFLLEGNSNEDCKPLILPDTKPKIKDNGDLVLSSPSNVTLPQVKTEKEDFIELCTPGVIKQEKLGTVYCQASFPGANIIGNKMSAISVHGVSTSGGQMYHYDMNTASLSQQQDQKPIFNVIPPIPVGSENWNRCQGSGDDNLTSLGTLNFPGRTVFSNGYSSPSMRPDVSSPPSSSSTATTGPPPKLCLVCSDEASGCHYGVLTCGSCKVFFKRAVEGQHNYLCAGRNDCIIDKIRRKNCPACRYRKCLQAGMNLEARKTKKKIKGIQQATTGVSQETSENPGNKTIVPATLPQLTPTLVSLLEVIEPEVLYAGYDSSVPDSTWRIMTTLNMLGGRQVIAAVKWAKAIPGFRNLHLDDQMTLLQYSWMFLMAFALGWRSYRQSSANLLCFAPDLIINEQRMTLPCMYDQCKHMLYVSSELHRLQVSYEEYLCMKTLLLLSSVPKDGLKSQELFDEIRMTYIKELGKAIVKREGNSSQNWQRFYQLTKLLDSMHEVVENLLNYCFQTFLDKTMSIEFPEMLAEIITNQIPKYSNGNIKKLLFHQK

Progesterone receptor = molecular target: T2, Progesterone receptor (Homo sapiens, UniProt P06401)
T2 sequence (P06401 whole entry): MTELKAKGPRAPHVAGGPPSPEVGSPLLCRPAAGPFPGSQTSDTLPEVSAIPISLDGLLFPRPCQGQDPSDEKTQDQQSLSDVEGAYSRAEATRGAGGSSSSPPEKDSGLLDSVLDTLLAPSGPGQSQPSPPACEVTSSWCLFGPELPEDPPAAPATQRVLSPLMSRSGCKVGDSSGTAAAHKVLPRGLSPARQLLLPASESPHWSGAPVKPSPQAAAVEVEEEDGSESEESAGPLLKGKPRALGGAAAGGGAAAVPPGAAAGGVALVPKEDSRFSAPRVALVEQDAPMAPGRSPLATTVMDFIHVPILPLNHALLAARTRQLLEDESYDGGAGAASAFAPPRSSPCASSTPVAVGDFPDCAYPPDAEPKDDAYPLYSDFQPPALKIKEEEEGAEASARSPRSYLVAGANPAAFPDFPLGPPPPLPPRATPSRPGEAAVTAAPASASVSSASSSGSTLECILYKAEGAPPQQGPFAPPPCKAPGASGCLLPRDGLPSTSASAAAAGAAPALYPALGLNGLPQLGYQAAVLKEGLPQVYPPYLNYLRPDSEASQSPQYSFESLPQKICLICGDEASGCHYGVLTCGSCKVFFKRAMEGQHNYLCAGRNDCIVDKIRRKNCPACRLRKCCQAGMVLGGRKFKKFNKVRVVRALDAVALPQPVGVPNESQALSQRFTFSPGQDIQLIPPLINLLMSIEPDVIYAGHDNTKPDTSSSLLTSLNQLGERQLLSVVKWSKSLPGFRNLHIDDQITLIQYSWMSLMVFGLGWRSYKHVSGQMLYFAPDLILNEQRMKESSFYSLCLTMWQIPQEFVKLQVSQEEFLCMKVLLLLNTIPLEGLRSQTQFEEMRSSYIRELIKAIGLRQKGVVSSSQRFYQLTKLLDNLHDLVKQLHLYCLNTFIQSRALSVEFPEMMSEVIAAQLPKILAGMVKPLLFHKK

[2] = molecular target: T3, Corticotropin-releasing factor receptor 2 (Homo sapiens, UniProt Q13324)
T3 sequence (Q13324 whole entry): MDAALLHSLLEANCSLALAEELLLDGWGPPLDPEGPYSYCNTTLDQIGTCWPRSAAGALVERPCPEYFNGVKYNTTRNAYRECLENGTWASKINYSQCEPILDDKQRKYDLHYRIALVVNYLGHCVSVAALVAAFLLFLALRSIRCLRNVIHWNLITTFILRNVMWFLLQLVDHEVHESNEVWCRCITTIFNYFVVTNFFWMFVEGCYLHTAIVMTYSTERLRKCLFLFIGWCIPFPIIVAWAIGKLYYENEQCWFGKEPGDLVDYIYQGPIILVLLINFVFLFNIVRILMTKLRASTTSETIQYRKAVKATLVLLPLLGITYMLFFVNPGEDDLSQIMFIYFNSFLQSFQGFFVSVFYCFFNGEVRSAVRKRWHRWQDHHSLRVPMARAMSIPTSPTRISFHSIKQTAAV

[3] = molecular target: T4, Alpha-2A adrenergic receptor (Homo sapiens, UniProt P08913)
T4 sequence (P08913 whole entry): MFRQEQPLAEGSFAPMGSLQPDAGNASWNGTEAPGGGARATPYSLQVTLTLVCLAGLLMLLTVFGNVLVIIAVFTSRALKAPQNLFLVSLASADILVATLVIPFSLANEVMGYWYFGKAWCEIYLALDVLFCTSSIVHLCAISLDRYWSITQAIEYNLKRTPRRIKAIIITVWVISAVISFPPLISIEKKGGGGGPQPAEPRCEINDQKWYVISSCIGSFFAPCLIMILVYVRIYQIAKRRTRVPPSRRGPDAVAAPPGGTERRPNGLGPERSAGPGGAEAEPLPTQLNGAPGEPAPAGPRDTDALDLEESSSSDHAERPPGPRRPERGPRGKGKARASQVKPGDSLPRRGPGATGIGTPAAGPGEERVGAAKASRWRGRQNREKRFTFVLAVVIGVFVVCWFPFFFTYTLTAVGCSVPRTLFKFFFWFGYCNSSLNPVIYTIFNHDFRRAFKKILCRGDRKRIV
Note: assay procedure not described here.

Gamma-aminobutyric acid receptor subunit alpha-1/alpha-2/beta-2/gamma-2, sequence (P14867 whole entry): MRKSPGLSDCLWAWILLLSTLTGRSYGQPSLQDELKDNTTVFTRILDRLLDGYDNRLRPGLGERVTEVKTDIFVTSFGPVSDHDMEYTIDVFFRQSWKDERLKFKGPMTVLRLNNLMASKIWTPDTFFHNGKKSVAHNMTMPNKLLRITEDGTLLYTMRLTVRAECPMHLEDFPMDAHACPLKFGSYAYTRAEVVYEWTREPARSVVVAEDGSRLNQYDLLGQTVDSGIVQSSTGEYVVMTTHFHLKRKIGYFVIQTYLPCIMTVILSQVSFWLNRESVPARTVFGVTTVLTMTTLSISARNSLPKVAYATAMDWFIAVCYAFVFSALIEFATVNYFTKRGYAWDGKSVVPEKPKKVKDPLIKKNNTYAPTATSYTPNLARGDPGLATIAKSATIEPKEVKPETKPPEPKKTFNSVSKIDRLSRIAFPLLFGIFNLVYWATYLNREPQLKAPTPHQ
Gamma-aminobutyric acid receptor subunit alpha-1/alpha-2/beta-2/gamma-2, sequence (P47870 whole entry): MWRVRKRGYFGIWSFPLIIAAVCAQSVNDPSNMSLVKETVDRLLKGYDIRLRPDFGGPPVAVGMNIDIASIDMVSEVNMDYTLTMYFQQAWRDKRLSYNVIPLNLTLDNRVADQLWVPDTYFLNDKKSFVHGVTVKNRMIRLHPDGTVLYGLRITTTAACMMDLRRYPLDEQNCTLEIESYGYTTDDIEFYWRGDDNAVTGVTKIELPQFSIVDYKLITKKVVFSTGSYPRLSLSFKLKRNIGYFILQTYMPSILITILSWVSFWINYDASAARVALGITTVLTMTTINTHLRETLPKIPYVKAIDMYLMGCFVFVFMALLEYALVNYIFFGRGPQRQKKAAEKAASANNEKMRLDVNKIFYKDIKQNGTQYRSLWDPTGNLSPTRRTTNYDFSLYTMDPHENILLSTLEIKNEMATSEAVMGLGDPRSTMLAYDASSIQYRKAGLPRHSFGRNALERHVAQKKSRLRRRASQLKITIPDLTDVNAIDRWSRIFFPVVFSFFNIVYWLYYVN
Gamma-aminobutyric acid receptor subunit alpha-1/alpha-2/beta-2/gamma-2, sequence (P18507 whole entry): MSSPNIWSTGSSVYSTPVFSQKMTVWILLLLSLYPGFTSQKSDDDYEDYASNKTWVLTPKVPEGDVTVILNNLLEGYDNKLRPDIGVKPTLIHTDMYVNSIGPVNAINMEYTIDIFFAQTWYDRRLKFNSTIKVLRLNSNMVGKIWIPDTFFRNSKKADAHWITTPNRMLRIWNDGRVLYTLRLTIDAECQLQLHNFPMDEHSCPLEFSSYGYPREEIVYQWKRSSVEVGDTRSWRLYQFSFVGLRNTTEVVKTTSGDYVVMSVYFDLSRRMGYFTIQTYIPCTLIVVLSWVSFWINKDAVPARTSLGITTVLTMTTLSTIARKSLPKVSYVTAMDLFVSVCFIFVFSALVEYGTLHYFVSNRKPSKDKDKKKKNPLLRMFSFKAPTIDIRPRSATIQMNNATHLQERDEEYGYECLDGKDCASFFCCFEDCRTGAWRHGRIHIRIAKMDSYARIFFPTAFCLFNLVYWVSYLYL
Gamma-aminobutyric acid receptor subunit alpha-1/alpha-2/beta-2/gamma-2, sequence (P47869 whole entry): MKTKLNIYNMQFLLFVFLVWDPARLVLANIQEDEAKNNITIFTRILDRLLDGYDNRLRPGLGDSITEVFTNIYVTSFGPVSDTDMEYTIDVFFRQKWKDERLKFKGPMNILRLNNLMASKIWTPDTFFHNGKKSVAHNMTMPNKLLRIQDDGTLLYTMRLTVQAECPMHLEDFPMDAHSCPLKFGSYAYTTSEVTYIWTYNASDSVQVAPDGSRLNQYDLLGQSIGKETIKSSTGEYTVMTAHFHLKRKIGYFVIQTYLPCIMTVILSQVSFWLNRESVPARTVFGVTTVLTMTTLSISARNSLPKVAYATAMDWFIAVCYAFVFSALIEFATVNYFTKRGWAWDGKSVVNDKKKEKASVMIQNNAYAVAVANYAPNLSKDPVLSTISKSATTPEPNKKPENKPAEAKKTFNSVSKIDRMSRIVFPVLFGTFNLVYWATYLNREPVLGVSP

Row | AC50 [1] [µM] | AC50 (Mu-type opioid receptor) [µM] | AC50 (Progesterone receptor) [µM] | AC50 [3] [µM] | SMILES | AC50 (Glucocorticoid receptor) [µM] | AC50 [2] [µM]
1 |  | > 30 | > 30 |  | C=C[C@H]1C[N@@]2CC[C@H]1C[C@@H]2[C@@H](O)c1ccnc2ccc(OC)cc12 [QUINIDINE] |  | 
2 |  | > 30 | > 30 | > 10 | CO[C@H]1/C=C/O[C@@]2(C)Oc3c(C)c(O)c4c(O)c(c(/C=N/N5CCN(C)CC5)c(O)c4c3C2=O)NC(=O)/C(C)=C\C=C\[C@H](C)[C@H](O)[C@@H](C)[C@@H](O)[C@@H](C)[C@H](OC(C)=O)[C@@H]1C [RIFAMPIN] |  | > 30
3 |  |  |  |  | CC(N)C12CC3CC(CC(C3)C1)C2 (stereo not drawn) [RIMANTADINE] | > 10 | 
4 | > 30 | > 30 | > 30 | > 10 | CN(C)CCc1c[nH]c2ccc(Cn3cncn3)cc12 [RIZATRIPTAN] |  | > 30
5 | > 30 | > 30 |  |  | CC(C)c1nc(N(C)S(C)(=O)=O)nc(-c2ccc(F)cc2)c1/C=C/[C@@H](O)C[C@@H](O)CC(=O)O [ROSUVASTATIN] | > 30 | 
6 | > 30 |  |  | > 10 | N[C@@H](CC(=O)N1CCn2c(nnc2C(F)(F)F)C1)Cc1cc(F)c(F)cc1F [SITAGLIPTIN] |  | 
7 |  |  | > 30 | > 10 | Nc1ccc(S(=O)(=O)Nc2nccs2)cc1 [SULFATHIAZOLE] | > 30 | > 30
8 |  | > 30 |  |  | O=C1C(CC[S+]([O-])c2ccccc2)C(=O)N(c2ccccc2)N1c1ccccc1 (stereo not drawn) [SULFINPYRAZONE] | > 10 | 
9 |  | > 30 |  | 9.47 | CCN(CC)CCNC(=O)c1c(C)[nH]c(/C=C2\C(=O)Nc3ccc(F)cc32)c1C [SUNITINIB] | > 30 | 
10 | > 30 |  |  |  | CC(S)C(=O)NCC(=O)O (stereo not drawn) [TIOPRONIN] |  | 

Row | SMILES | AC50 [1] [µM] | AC50 (Mu-type opioid receptor) [µM] | AC50 (Progesterone receptor) [µM] | AC50 [3] [µM] | AC50 (Glucocorticoid receptor) [µM] | AC50 [2] [µM]
11 | CN(CC1(C)CCCO1)S(=O)(=O)c1ccc(Cl)c(S(N)(=O)=O)c1 (stereo not drawn) [MEFRUSIDE] | > 30 | > 30 |  |  |  | 
12 | CC(=O)O[C@]1(C(C)=O)CC[C@H]2[C@@H]3C=C(C)C4=CC(=O)CC[C@@H]4[C@H]3CC[C@@]21C [NOMEGESTROL ACETATE] |  | > 30 |  |  | 0.067 | 
13 | CN1C(C(=O)Nc2ccccn2)=C(O)c2ccccc2S1(=O)=O [PIROXICAM] |  | > 30 |  |  | > 10 | 
14 | OC[C@H]1O[C@@](CO)(O[C@H]2O[C@H](CO)[C@@H](O)[C@H](O)[C@H]2O)[C@@H](O)[C@@H]1O [SUCROSE] | > 30 | > 30 |  |  |  | 
15 | COc1cc2nc(N3CCN(C(=O)C4CCCO4)CC3)nc(N)c2cc1OC (stereo not drawn) [TERAZOSIN] |  | > 30 |  | 7.27 | > 30 | > 30
16 | C[C@H](CCC(=O)O)[C@H]1CC[C@H]2[C@@H]3[C@@H](O)C[C@@H]4C[C@H](O)CC[C@]4(C)[C@H]3CC[C@]12C [URSODIOL] | > 30 |  |  |  |  | 
17 | Cc1onc(-c2ccccc2)c1-c1ccc(S(N)(=O)=O)cc1 [VALDECOXIB] |  |  | > 30 | > 10 | > 30 | > 30
18 | CCCC(CCC)C(=O)O [VALPROIC ACID] |  |  | > 30 | > 10 | > 30 | > 30
